pKi: −log10 of the molar value.
Key:
[1] = biological target: T1, Amyloid-beta precursor protein (Homo sapiens, UniProt P05067); assay: Displacement of [125I](E,E)-1-iodo-2,5-bis-(3-hydroxycarbonyl-4-methoxy)styrylbenzene from beta amyloid peptide in brain tissue at 50 uL; type: tissue-based
[2] = biological target: T1, Amyloid-beta precursor protein; assay: Displacement of [125I]2-(4'-dimethylaminophenyl)-6-iodoimidazo[1,2-a]pyridine from beta amyloid peptide in brain tissue at 50 uL; type: tissue-based

T1 sequence (P05067 whole entry): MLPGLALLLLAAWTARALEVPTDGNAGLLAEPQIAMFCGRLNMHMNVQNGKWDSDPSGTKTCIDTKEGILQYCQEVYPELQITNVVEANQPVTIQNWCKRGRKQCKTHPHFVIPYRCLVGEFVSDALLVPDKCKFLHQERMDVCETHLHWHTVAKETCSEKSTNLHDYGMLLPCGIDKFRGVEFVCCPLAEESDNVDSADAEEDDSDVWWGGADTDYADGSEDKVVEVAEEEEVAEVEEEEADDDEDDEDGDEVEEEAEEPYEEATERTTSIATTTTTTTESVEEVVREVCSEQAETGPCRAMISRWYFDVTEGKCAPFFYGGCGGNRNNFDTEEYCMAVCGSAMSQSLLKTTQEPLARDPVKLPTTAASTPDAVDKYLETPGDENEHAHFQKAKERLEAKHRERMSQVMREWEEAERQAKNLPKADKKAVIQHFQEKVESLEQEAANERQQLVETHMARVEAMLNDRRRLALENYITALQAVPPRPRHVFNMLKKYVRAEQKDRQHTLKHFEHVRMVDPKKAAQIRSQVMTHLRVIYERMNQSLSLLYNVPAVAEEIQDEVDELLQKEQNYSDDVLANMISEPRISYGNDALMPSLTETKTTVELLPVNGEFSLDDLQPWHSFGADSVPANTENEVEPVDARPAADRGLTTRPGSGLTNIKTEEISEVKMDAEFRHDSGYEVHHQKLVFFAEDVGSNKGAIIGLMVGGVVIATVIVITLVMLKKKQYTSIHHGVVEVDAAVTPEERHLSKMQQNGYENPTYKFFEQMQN

SMILES	pKi [1]	pKi [2]
Nc1ccc(/C=C/C=C/C=C/c2ccc(NCCF)cc2)cc1	6.66	7.92
O=[N+]([O-])c1ccc(/C=C/C=C/C=C/c2ccc([N+](=O)[O-])cc2)cc1	< 5.40	6.30
CC(=C(C#N)C#N)c1ccc2cc(N(C)CCF)ccc2c1	< 5.10	6.82
Nc1ccc(/C=C/C=C/C=C/c2ccc(N)cc2)cc1	6.43	8.05
COc1ccc(/C=C/C=C/C=C/c2ccc(OC)cc2)cc1	< 5.10	< 5.40

Continued, values first:

pKi [1]	pKi [2]	SMILES
6.91	8.12	CNc1ccc(/C=C/C=C/C=C/c2ccc(NC)cc2)cc1
8.29	< 6.00	COc1ccc(/C=C/c2ccc(/C=C/c3ccc(OC)c(C(=O)O)c3)c(I)c2)cc1C(=O)O
< 5.15	6.08	CN(C)c1ccc(/C=C/C=C/C=C/c2ccc(N(C)C)cc2)cc1
6.82	8.05	Oc1ccc(/C=C/C=C/C=C/c2ccc(O)cc2)cc1
